From publication PMC4013053, “Identification of Selective Small Molecule Inhibitors of the Nucleotide-Binding Oligomerization Domain 1 (NOD1) Signaling Pathway” (PLoS ONE, 2014)

What was measured:
[1] = test system: panel of 300 human kinases; assay: Kinase activity panel (Reaction Biology Corp); type: biochemical; conditions: 1 µM compound, 10 µM ATP, 300 kinases
Method: The compounds were tested in duplicate at 1 µM with a 20-minute pre-incubation with enzyme followed by addition of 10 µM ATP.

NOD2 = NOD2 (Homo sapiens, UniProt Q9HC29); assay: MDP-stimulated IL-8 secretion in primary human monocytes; type: cell-based; set-up: Monocytes were purified from heparinized human whole blood; endogenous in cells; host or cells: primary human blood monocytes
Chain of NOD2 (Q9HC29 whole entry): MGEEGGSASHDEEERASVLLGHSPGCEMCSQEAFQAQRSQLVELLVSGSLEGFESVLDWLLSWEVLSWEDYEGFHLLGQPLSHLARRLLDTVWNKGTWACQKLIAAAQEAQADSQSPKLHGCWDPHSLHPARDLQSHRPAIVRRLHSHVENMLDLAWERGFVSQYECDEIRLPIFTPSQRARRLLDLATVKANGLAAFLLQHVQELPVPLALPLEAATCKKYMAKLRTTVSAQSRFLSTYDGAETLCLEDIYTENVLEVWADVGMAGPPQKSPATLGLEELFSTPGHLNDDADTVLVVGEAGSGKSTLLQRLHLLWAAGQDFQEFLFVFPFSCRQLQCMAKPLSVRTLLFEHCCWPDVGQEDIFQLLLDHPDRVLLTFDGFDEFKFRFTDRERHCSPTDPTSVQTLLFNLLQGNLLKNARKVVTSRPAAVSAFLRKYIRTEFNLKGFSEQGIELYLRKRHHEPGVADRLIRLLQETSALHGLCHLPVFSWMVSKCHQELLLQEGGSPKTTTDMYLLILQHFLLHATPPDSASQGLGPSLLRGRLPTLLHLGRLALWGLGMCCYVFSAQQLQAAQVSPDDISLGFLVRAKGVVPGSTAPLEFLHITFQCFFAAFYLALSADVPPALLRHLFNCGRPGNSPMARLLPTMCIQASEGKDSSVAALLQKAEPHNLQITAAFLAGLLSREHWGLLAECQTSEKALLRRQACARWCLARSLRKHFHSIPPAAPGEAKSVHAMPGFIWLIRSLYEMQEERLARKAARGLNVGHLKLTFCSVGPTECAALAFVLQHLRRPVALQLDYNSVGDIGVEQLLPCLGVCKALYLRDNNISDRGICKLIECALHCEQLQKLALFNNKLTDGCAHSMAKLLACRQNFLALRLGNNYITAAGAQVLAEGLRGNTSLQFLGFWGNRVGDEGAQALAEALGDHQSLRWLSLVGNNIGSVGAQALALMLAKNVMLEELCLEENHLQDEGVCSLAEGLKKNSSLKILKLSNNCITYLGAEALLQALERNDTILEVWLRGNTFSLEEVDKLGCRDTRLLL
Method: Monocytes were purified from heparinized human whole blood by centrifugation on Ficoll (Histopaque 1077) followed by Percoll gradients. Monocyte purity was >95% by morphological assessment of Wright’s stained cytospins. Cells were seeded at 100,000 per well in 96-well plates in RPMI containing 10%HI-FBS, pre-incubated for 1 hour with compounds, and then stimulated with either 25 µg/mL Tri-DAP or 1 µg/mL MDP. The concentration of IL-8 in medium samples collected after 24-hour treatment was determined by HTRF whereas IL-1β, IL-6 and TNFα were measured using the MS6000 human pro-inflammatory-4 II tissue culture kit (Meso Scale Discovery).

NOD1 = target: T1, NOD1 (Mus musculus, UniProt Q8BHB0); assay: FK156 acute peritonitis model in mice, serum KC and IP-10; type: in vivo; conditions: oral administration, intraperitoneal FK156, data not shown
T1 construct: following intraperitoneal injection of FK156 in a model of acute peritonitis; from tissue; host or cells: whole mouse (in vivo)
T1 sequence (Q8BHB0 1-953): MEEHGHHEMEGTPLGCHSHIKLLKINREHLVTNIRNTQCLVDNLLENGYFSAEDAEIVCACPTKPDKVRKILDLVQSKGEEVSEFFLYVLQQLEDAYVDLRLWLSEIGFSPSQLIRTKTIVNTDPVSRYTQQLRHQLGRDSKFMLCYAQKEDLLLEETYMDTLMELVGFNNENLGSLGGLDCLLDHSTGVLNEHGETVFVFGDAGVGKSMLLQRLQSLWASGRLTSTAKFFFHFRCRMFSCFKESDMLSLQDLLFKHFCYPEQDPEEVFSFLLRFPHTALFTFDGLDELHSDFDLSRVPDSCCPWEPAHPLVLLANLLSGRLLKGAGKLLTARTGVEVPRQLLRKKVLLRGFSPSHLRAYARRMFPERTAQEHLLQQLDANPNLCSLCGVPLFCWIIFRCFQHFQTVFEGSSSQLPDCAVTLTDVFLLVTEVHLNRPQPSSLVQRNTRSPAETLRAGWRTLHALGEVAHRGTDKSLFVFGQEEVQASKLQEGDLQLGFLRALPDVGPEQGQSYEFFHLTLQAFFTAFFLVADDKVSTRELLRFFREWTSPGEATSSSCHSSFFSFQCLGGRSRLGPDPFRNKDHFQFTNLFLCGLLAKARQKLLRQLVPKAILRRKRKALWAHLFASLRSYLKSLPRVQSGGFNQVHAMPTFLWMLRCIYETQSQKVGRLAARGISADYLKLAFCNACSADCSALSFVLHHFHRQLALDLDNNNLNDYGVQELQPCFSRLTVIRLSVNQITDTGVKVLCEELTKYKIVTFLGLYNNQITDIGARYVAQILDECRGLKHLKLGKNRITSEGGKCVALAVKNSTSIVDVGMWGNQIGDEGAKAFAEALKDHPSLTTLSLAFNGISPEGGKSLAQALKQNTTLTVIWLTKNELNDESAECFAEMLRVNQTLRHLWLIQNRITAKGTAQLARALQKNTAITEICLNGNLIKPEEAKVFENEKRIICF
Source text: We speculate that the known differences in ligand recognition between human and mouse NOD1 mapped to residues within the leucine-rich repeat domains could underlie the observed differential activity of the compounds on human versus mouse NOD1 signaling.

| inhibition of any kinase in panel [1] [%] | effect on MDP induced IL-8 secretion (NOD2) | Structure (SMILES) | effect on serum KC and IP-10 (CXCL10) (NOD1) |
| --- | --- | --- | --- |
| ≤ 50 | – | CCc1ccc(S(=O)(=O)Nc2cc(-n3c(C)nc4ccccc4c3=O)ccc2F)s1 [GSK223] | – |
| – | did not inhibit | Cc1nc2ccccc2c(=O)n1-c1ccc(Cl)c(NS(=O)(=O)c2ccccc2F)c1 [Compound 22] | failed to reduce serum KC and IP-10 (CXCL10) |
